Source: patent publication US20230123585A1, “COMPOSITIONS AND METHODS FOR TREATING OR PREVENTING CANCER USING DEUBIQUITINASE INHIBITORS” (The University of Chicago, priority 2020, published 2023)

Test system: METTL3 / m^6A methyltransferase complex in A375 cells
Assay: Immunoblot of METTL3 / m^6A methyltransferase complex protein in A375 cell lysates
Type: cell-based, human
Description: FIGS. 6A-6H: Phosphorylation of the m^6A Methyltransferase Complex May Affect Tumorigenesis. (A) Lysates of A375 stable transfectants harvested at different time points after treatment with cycloheximide (CHX) 10 μg/ml were analyzed by immunoblot. (B) LC-MS/MS quantification of the m^6A/A ratio in mRNA of A375 stable transfectants. (C) After 8 h treatment with 10 μM PD0325901 or 0.1 μM tramentib, cell lysates from A375 cells were analyzed by immunoblot. (D) LC-MS/MS quantification of the m^6A/A ratio in mRNA of A375 cells treated with 10 μM PD0325901 or 0.1 μM tramentib for 48 h. (E) After 8hr treatment with 10 μM EOAI3402143 (EOAI) or 30 μM vialinin A , cell lysates from A375 cells were analyzed by immunoblot. (F) A375 stable transfectants as indicated were treated with 3 μM EOAI3402143 (EOAI) or 10 μM vialinin A before measuring cell viability by SRB assay. Data are presented as relative to the R-WT cells without drug treatment (n=3 per group, data represent mean±SEM). (G) Immunofluorescence analysis of METTL3 (green) in SKBR3 cells treated with 1 μM tucatinib and 1 μM lapatinib for 8 hr. DAPI (blue) was used to mark the nucleus. (H) LC-MS/MS quantification of the m^6A/A ratio in mRNA of SKBR3 and BT474 cells treated with 1 μM tucatinib and 1 μM lapatinib for 48 h. (See also FIG. 14.)
FIGS. 11A-11G: USP5 is Required for ERK-Mediated METTL3 Stabilization. (A) A375 cells transfected with HA-ubiquitin (ub) were treated with 10 μM MG-132 and MEK inhibitor PD0325901 for 8 h. The ubiquitination of METTL3 was detected by IP with anti-METTL3 and immunoblot with anti-HA. (B) After 8 h treatment with 10 μM PD0325901 with or without 10 μM MG-132, cell lysates from A375 cells were analyzed by immunoblot. (C) A375 cells were treated with various concentrations of PD0325901 for 1 h. Cell lysates were subjected to IP with METTL3 antibody followed by immunoblot. (D) 293T cells transfected as indicated were subjected to IP/immunoblot analysis. (E) Immunofluorescence analysis of myc-METTL3 (green) in mESC stable transfectants. DAPI (blue) was used to mark the nucleus. (F) Lysates of 293T cells transfected as indicated were subjected to IP with anti-Flag antibody followed by immunoblot. (G) Immunofluorescence analysis of 293T cells co-transfected with myc-METTL3 (green), Flag-USP5 (red) with or without constitutively active B-RAF.
Immunoprecipitation, immunoblotting, and in vitro kinase assay. Immunoprecipitation (IP) and immunoblotting (IB) were performed as previously described (Sun et al., 2016). In brief, protein samples were isolated from respective cells by lysis in RIPA buffer (1% Triton X-100, 150 mM NaCl, 20 mM Na2PO4, pH 7.4) containing Halt Protease and Phosphatase Inhibitor Cocktail (Thermo Scientific). Subsequently, a BCA assay (Thermo Scientific) was used to determine the protein concentrations. For IP, indicated antibody and protein A/G magnetic beads (Thermo Scientific) were incubated with lysate at 4° C. overnight followed by washing and elution with sample buffer. Equal amounts of protein were separated by SDS-PAGE followed by wet transfer to PVDF membranes. Blots were blocked with 5% non-fat milk or BSA and incubated with respective primary antibody at 4° C. overnight. Primary antibodies were detected by HRP-linked secondary antibodies (Cell Signaling) together with SuperSignal West Pico Plus chemiluminescent substrate (Thermo Scientific) and imaged in a FluorChem R system (ProteinSimple).

O=C(NOC[C@H](O)CO)c1ccc(F)c(F)c1Nc1ccc(I)cc1F [PD0325901]
degradation of METTL3 (A375 cells, 10 μM PD0325901, 8 h): increased | protein levels of the m^6A methyltransferase complex (A375 melanoma cells, 8 h, 10 μM PD0325901 or 0.1 μM trametinib): reduce
